Assay results as given in ChEMBL document CHEMBL1151138, “3'-prenyl-4'-methoxy-isoflavone-7-O-beta-D-(2''-O-p-coumaroyl) glucopyranoside, a novel phytoestrogen from Sopubia delphinifolia” (1990).
Active and inactive are the calls of the source. No cut-off for these calls is given here.

Columns and labels:
Rattus norvegicus [1] = assay: Estrogenic activity in albino rat assessed as uterus weight at 50 ug, po administered twice daily measured after 4 days; type: functional
Rattus norvegicus [2] = assay: Estrogenic activity in albino rat assessed as uterus weight at 20 ug, po administered twice daily measured after 4 days; type: functional
Rattus norvegicus [3] = assay: Estrogenic activity in albino rat assessed as vaginal openings at 50 ug, po administered twice daily measured after 4 days relative to control; type: functional
Rattus norvegicus [4] = assay: Estrogenic activity in albino rat assessed as uterus weight at 10 ug, po administered twice daily measured after 4 days; type: functional
Rattus norvegicus [5] = assay: Estrogenic activity in albino rat assessed as vaginal openings at 10 ug, po administered twice daily measured after 4 days relative to control; type: functional, organism-based

Q: Which results are given for `COc1ccc(-c2coc3cc(O[C@@H]4O[C@H](CO)[C@@H](O)[C@H](O)[C@H]4OC(=O)/C=C/c4ccc(O)cc4)ccc3c2=O)cc1CC=C(C)C`?
A: Activity (Rattus norvegicus [1]): 33.21%; Activity (Rattus norvegicus [2]): 27.79%; Activity (Rattus norvegicus [3]): 100%; Activity (Rattus norvegicus [4]): 18%; Activity (Rattus norvegicus [5]): inactive
